“And” between values parts separate entries of the source, which are not always exact repeats. Equal values may be shown once.
What was measured:
[1] = biological target: T1, human PYCR1 (Homo sapiens, UniProt P32322); assay: biochemical; settings: for Ki: competitive with P5C, NADH fixed 175 μM; for kcat: kcat for L-P5C at fixed NADH 175 μM, global fit of the data set with this analog
T1 sequence (P32322 1-300): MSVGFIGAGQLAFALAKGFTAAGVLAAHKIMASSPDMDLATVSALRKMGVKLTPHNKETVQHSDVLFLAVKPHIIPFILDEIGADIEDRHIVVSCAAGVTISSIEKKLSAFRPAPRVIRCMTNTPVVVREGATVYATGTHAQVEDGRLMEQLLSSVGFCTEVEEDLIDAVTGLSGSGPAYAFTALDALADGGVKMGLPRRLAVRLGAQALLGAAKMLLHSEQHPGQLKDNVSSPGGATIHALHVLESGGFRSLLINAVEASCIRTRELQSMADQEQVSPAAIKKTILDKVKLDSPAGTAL
Method: (§1) Over two dozen proline analogs (Fig. 2) were screened using electron density from X-ray crystallography as the readout for binding to human PYCR1. […] Because the compounds bind in the P5C/proline site, the mechanism of inhibition was assumed to be competitive with P5C. Therefore, steady-state kinetic measurements were performed with L-P5C as the variable substrate (0-1000 μM) and NADH fixed (175 μM) (Fig. 3). For each compound, the data were fit globally to a competitive inhibition model (Equation 1) to obtain an inhibition constant, Ki.
B, THFA. C, CPC. D, T4C. E, T2C. F, NFLP. The data were measured in 50 mM Tris (pH 7.5) with 1 mM EDTA disodium salt while holding NADH fixed at 175 μM and varying D,L-P5C (0–2000 μM). The concentration of the substrate L-P5C was considered to be half the total D,L-P5C concentration added to the assays. Curves represent global fits of the data to a competitive inhibition model showing initial velocity in units of µM [NAD^+] s^−1 as a function of L-P5C concentration (µM).
A C-terminal truncation variant of human PYCR1, which includes residues 1–300 of the full-length 319-residue enzyme, was used for kinetics and X-ray crystallography ([18]). PYCR1 was overexpressed in Escherichia coli BL21 (DE3) competent cells and purified using methods similar to those previously reported ([18]). Harvested cells were lysed via sonication in a mixture containing DNase I, lysozyme, and 0.2 mM phenylmethylsulfonyl fluoride protease inhibitor, and then the insoluble material was removed via centrifugation at 16,000 rpm for 1 h at 4°C. The resulting lysate was purified by gravity-flow chromatography on a column containing Ni^2+–nitrilotriacetic acid resin (Qiagen) pre-equilibrated with binding buffer consisting of 50 mM HEPES, 300 mM NaCl, 10 mM imidazole, and 5% (w/v) glycerol at pH 7.8 (buffer A). The column was washed with buffer A supplemented with 30 mM imidazole, and then the bound protein was eluted with buffer A supplemented with 300 mM imidazole. Elution fractions containing PYCR1 were identified by SDS-PAGE and prepared for further purification by size-exclusion chromatography by dialyzing into 300 mM NaCl, 2% (w/v) glycerol, and 50 mM HEPES at pH 7.5. Size-exclusion chromatography was performed on a HiLoad 16/600 Superdex 200 column equilibrated with 50 mM HEPES, pH 7.8, 300 mM NaCl, and 5% (w/v) glycerol. Purified PYCR1 was concentrated to 8 mg/ml and stored at 4°C for subsequent crystallization trials.
Kinetic measurements were performed in a BioTek Epoch 2 microplate spectrophotometer using Corning 96-well UV-transparent microplates. Activity assays were performed by monitoring the consumption of NADH at 340 nm (ε340 = 6220 M^−1 cm^−1) using P5C as the substrate. D,L-P5C was synthesized as described previously ([45]), quantified using o-aminobenzaldehyde (o-AB), and stored in 1 M HCl at 4°C. Neutralization of D,L-P5C to pH 7.5 was performed immediately prior to assays using 1 M Tris (pH 7.5) and 6 M NaOH. The concentration of the substrate L-P5C was assumed to be half the total D,L-P5C concentration added to the assays.
The following microplate protocol was employed. Substrate mixtures containing P5C, NADH, EDTA, and Tris buffer were prepared in a deep well block for each P5C concentration. Mixtures containing enzyme and various concentrations of the inhibitor were prepared in microcentrifuge tubes and incubated on ice in buffer containing 50 mM HEPES pH 7.8, 300 mM NaCl, and 5% (w/v) glycerol. The final concentration of PYCR1 in the assay was 6.25 nM. Twenty μl of the enzyme-analog mixture was added to microplate wells using a single-channel pipette, and then the reaction was initiated by addition of 180 μl of the substrate mixtures using a multi-channel pipettor. The reaction traces were followed for 35 min.

[2] = biological target: T1, human PYCR1; assay: In crystallo screening: electron density as readout for binding (crystal soaking); design: includes residues 1–300 of the full-length 319-residue enzyme; inferred from the Ni-NTA purification; made in house; host or cells: Escherichia coli BL21 (DE3); settings: apo crystals soaked with 25–500 mM of the proline analog
Method: as §1
06594), D,L-thiazolidine-2-carboxylate (Sigma-Aldrich no. 467995), L-thiazolidine-4-carboxylate (Sigma-Aldrich no. T27502), 1,3-thiazolidine-2,4-dicarboxylate (Sigma-Aldrich no. CDS000186), dimethyl 1,3-thiazolidine-2,4-dicarboxylate (Sigma-Aldrich no. […] 287067), L-4-hydroxyproline methyl ester (hydrochloride) (Sigma-Aldrich no. 30681), cis-4-hydroxy-D-proline methyl ester (hydrochloride) (Sigma-Aldrich no. […] 441562), L-(+)-mandelic acid (Sigma-Aldrich no. 63460), sodium-L-lactate (Sigma-Aldrich no. 71718), D-cycloserine (Sigma-Aldrich no. C6880). The proline analogs were added to apo crystals during cryoprotection by soaking the crystals in the reservoir solution supplemented with cryoprotectant (PEG 200 for the PEG 3350 form; glycerol for the NaCl form) and then in the same cryobuffer supplemented with 25–500 mM of the proline analog. Following equilibration, the crystals were harvested and rapidly plunged into liquid nitrogen.
The complex of PYCR1 with THFA was obtained by soaking a C2 crystal (NaCl form) for 15 min in a cryo-buffer consisting of the reservoir solution (3 M NaCl and 0.1 M HEPES at pH 7.5–8.0) supplemented with 30% glycerol and 50 mM THFA, followed by flash-cooling in liquid nitrogen. Crystals of the NFLP complex were prepared by soaking P2_12_12 crystals in the reservoir solution (250 mM Li2SO4, 19% (w/v) PEG 3350, 0.1 M HEPES, pH 7.5) supplemented with 20% (v/v) PEG 200 and 100 mM NFLP. The complexes with L-T2C and L-T4C were prepared similarly, except the Li2SO4 concentration was reduced to 25 mM and 50 mM of either L-T4C or D,L-T2C was included.

[3] = test system: PYCR1; design: method as in PMID 31362921; settings: reported IC50 against PYCR1; cited from earlier work
[4] = Ki, 50 mM Tris pH 7.5, global fit

| Structure (SMILES) | Ki ([1]; Ki (estimated), rounded values) | Ki [1, 4] | kcat [1] | electron density evidence for binding (in words) [2] | inhibition of PYCR1 (in words) [1] | IC50 [3] |
| --- | --- | --- | --- | --- | --- | --- |
| O=C(O)C1CCCC1 [CPC, cyclopentanecarboxylate] | > 1000 µM and 1000 µM | 1190 ± 61 µM | 35 ± 1 s⁻¹ |  |  |  |
| O=C(O)C1NCCS1 [L-T2C, L-thiazolidine-2-carboxylate] | ~400 µM | 438 ± 29 µM | 37 ± 1 s⁻¹ | Electron density evidence for binding was observed |  |  |
| O=C(O)[C@@H]1CCCO1 [THFA, (S)-(−)-tetrahydro-2-furoic acid] | > 1000 µM and 2000 µM | 2250 ± 121 µM | 69 ± 1 s⁻¹ | Electron density evidence for binding was observed | only negligibly inhibits PYCR1 |  |
| O=C(O)[C@@H]1CSCN1 [L-T4C, L-thiazolidine-4-carboxylate] | ~600 µM | 598 ± 39 µM | 54 ± 2 s⁻¹ | Electron density evidence for binding was observed |  |  |
| C#CCN(C)Cc1ccccc1 [pargyline] |  |  |  |  |  | 200 µM |
| CC(=O)N1CCC[C@H]1C(=O)O [N-acetyl L-proline] |  |  |  |  | did not inhibit PYCR1 |  |

Reference: publication PMC7939384, “In crystallo screening for proline analog inhibitors of the proline cycle enzyme PYCR1” (The Journal of Biological Chemistry, 2021)
